The results in this text go back to patent US20220409576A1, “NANO-PARTICULATE COMPOSITIONS FOR STIMULATING HOST INNATE IMMUNE RESPONSES FOR THERAPEUTIC APPLICATIONS” (priority 2019, published 2022).

The test system of one experiment is intracellular S. aureus. In words: Bactericidal activity of RAW 264.7 macrophages against intracellular S. aureus (antibiotic protection assay, viable colony number). Format: cell-based, Staphylococcus aureus. The conditions noted are these: cells with IONPs 3 mg/mL + VC 500 μM plus chelator BIP 500 μM or scavenger THI 200 mM, FIG. 3C. The protocol: A. The quantification of ROS generation in the RAW 264.7 cells treated with varying concentration of IONPs (0-3 mg/mL). B. The colony number of viable bacteria (S. aureus) in the lysed RAW 264.7 macrophages treated with varying concentration of IONPs (0-3 mg/mL) following the exposure of live S. aureus.
(A-B) The quantification of ROS generation (A) and viable colony number of S. aureus (B) in the RAW 264.7 cells treated with VC (500 μM) alone, IONP (3 mg/mL) alone, or IONP (3 mg/mL)+VC (500 μM). (C-D) The quantification of ROS generation (C) and viable colony number of S. aureus (D) in the RAW 264.7 cells treated with IONP (3 mg/mL) alone, or IONP (3 mg/mL)+H2O2 (100 μM). E. Representative images of surviving S. aureus colony on agar plates from lysed RAW264.7 macrophages treated with H2O2 (100 μM), IONP (3 mg/mL), or IONP+H2O2. N=3-5 per group, *p<0.05
A. The intracellular level of ferrous iron (Fe2+) in RAW 264.7 cells treated with IONPs (3 mg/mL) alone, IONPs with VC (500 μM), or IONPs with VC and BIP (iron chelator, 500 μM). […] The bactericidal activity of RAW 264.7 cells treated with IONPs (3 mg/mL) with VC (500 μM), IONPs with VC and BIP (500 μM), or IONPs with VC and TIH (200 mM), assessed by antibiotic protection assay. *p<0.05, N=3-5 per group. […]

The next experiment concerns RAW 264.7 cells. In words: Intracellular hydroxyl radical generation in RAW 264.7 cells. Format: cell-based. The settings on record: RAW 264.7 cells with IONPs 3 mg/mL + VC 500 μM, BIP 500 μM, 24 h, FIG. 3B. The protocol: A. The intracellular level of ferrous iron (Fe2+) in RAW 264.7 cells treated with IONPs (3 mg/mL) alone, IONPs with VC (500 μM), or IONPs with VC and BIP (iron chelator, 500 μM). B. The intracellular level of hydroxyl radical concentration in RAW 264.7 cells treated with IONPs (3 mg/mL) alone, IONPs with VC (500 μM), or in combination with BIP (500 μM) for 24 h. C. The bactericidal activity of RAW 264.7 cells treated with IONPs (3 mg/mL) with VC (500 μM), IONPs with VC and BIP (500 μM), or IONPs with VC and TIH (200 mM), assessed by antibiotic protection assay. *p<0.05, N=3-5 per group.
To further determine if the VC-mediated ROS generation and bactericidal activity were associated with a Fenton reaction due to increased release of Fe^2+, the levels of Fe^2+ were compared between RAW 264.7 cells treated with IONPs alone and IONPs with VC. […] Among various forms of ROS, hydroxyl radical ([…]) is highly cytotoxic by causing oxidative damage to DNA and cell membrane. In the Fenton reaction-mediated generation of ROS, the oxidation of Fe^2+ by hydrogen peroxide (H2O2) produces highly reactive hydroxyl radical.

SMILES strings stand for the structures.

For `c1ccc(-c2ccccn2)nc1` [BIP], in the experiment with intracellular S. aureus, the “IONPs/VC-induced bactericidal activity of RAW 264.7 cells” value was “decrease in bactericidal activity”. Moreover, in the experiment on RAW 264.7 cells, the “IONPs and VC-induced generation of hydroxyl radicals” value was “significantly decreased”.
